The record followed here is US5834435A, “Inhibition of TNF-α pleiotropic and cytotoxic effects” (priority 1996, dated 1998).

Series [1] deals with isolated cardiac myocytes. The series is described as follows: Effects of TNF-α on contractivity of adult cardiac myocytes (cell shortening, video edge detection). Type of series: cell-based, human. On the procedure:
Myocardial samples were obtained from organ donors, whose hearts were initially considered for cardiac transplantation but were subsequently deemed unsuitable for transplantation because of blood type or size incompatibility. Freshly isolated myocytes were treated for 60 minutes at 37° C. with single concentration of GMDP (5 μg/ml). Control cells were treated with single concentration of recombinant human TNF-α (Genzyme) that is known to produce negative inotropic effects in isolated cardiac myocytes (200 μ/ml). Cell motion was characterized with video edge detection as previously described in detail (17). Results were expressed as percentage change in cell length from resting values.

Series [2] relates to isolated cardiac myocytes. As to the kind of experiment: Intracellular fluorescence brightness in isolated cardiac myocytes. The format is cell-based. Particulars: 200 μ/ml TNF-α; n=45 cells/group; FIG. 7 insert. An excerpt:
As shown, the peak level of intracellular fluorescence brightness was reduced strikingly for the cells treated with 200 μ/ml TNF-α.

Series [3] has as its system patients with terminate stage of cancer. An excerpt: Results were expressed as percentage change in both triglycerides and cholesterol level from pretreatment values.
Series [4] has as its system E6/1.2 anti-GMDP monoclonal antibody. The series is described as follows: Antibody capture assay with antigen competition variation. Type of series: binding, mouse. Particulars: 1 μg/well and 0.1 μg/well GMDP-Lys-PAA; FIGS. 1A,B and 2. The text has this: Antibody capture assay (Antibodies: A laboratory Manual (E. Harlow and D. Lane, eds.), Cold Spring Harbor Laboratory, 1988) with antigen competition variation has been used to detect GMDP in human […]. Highly specific mouse E6/1.2 anti-GMDP monoclonal antibody (Ka=2×10^9 M^-1) and GMDP conjugated to polyacrylamide backbone through amino group of lysine (GMDP-Lys-PAA) were obtained from Dr. Nesmeyanov, the Shemyakin and Ovchinnikov Institute of Bioorganic Chemistry, Russian Academy of Sciences, Moscow, Russia.
Briefly, GMDP-Lys-PAA or serial dilutions of human female milk in phosphate buffered saline (PBS) were adsorbed onto wells of microtiter plates for several hours. After washing with PBS, remaining binding sites were blocked by 1 h incubations with 200 μl PBS+3% bovine serum albumin (BSA). After washing with PBS 100 μl of E6/1.2 antibody, diluted 1:1,000 or 1:2,000 with PBS+1% BSA, were added. The incubation was carried out for 1 h at room temperature. […] Optical density at 492 nm was measured.
Two different amounts of GMDP-Lys-PAA in PBS were adsorbed onto wells of microtiter plates (1 μg/well and 0.1 μg/well). […] Inhibition index (I,%) was calculated from: I=(1-Ao/A1)×100, where Ao and A1 are optical densities of samples without or with inhibitor, respectively.

Series [5] has as its system patients with terminate stage of cancer. An excerpt: 27 patients with terminate stage of cancer participated in this study. The study group consisted of 19 females and 8 males between 14 and 59 years of age. 3 of them have had malignant brain tumors glioblastoma multiforme, 9 patients had breast carcinoma with massive metastasis to the liver or brain, one patient had intermediate stage lymphoma, one of them had stomach cancer with liver metastasis, three patients had hepatomas with lung metastasis, and two of them pancreatic cancer with liver metastasis.
19 patients were given GMDP orally at dosage of 50 mg daily as a water solution for fourteen days. 8 patients received a placebo.
Results were expressed as percentage change in LDH activity from pretreatment values.
This is another data set of the same source.

Turning to TNF-α [reference compound], in series [1] (cells treated with TNF-α vs control, n=40 cells/group, FIG. 6), the cell shortening entry is “concentration-dependent decrease”. The “decrease in the percent change in peak intensity of fluorescence brightness” value in series [2] was ~ 38%.
For the molecule `CC(=O)NC1C(OC2C(CO)OC(O)C(NC(C)=O)C2OC(C)C(=O)NC(C)C(=O)NC(CCC(=O)O)C(N)=O)OC(CO)C(O)C1O` [GMDP, N-acetyl-D-glucosaminyl-(β1-4)-N-acetylmuramyl-L-alanyl-D-isoglutamine], in series [3] (patient treated with GMDP, FIG. 10), the “reduction of elevated cholesterol level (percentage change from pretreatment values)” value came out at 51%. In addition, in series [3] (treated patients with elevated triglycerides, FIG. 9), the “decreasing for triglycerides concentration (percentage change from pretreatment values)” value amounted to 82%. In addition, the “inhibition of E6/1.2 antibody interaction with the adsorbed GMDP-Lys-PAA” value in series [4] is “inhibition”. Moreover, the “negative inotropic effects of TNF-α in isolated cardiac myocytes” value in series [1] (FIGS. 6 and 7 taken together) is given as “inhibits”. The “effects of TNF alfa on cell shortening after pretreatment” value in series [1] (GMDP 5 μg/ml, 60 minutes at 37° C., 200 μ/ml TNF alfa, FIG. 6) is on record as “completely attenuated”. Besides, the “overall clinical condition during the follow up period” value in series [5] (all patients treated with GMDP) is “improved”. Besides, the side effects result in series [5] (orally 50 mg daily as water solution for fourteen days) is reported as “None”. Besides, the “decreasing of LDH activity (percentage change from pretreatment values)” value in series [5] (orally 50 mg daily, fourteen days, lowest level at the fourteenth day, FIG. 8) turned out to be 68%. Besides, in series [5] (patients who had these symptoms of tumor toxicity before treatment), the “nausea and vomiting subsided” value is listed as 7 patients.
